Data reported in ChEMBL document CHEMBL3885861, “Open TG-GATES”.

Species: Rattus norvegicus
Assay: Open TG-GATES - Regimen: Daily Repeat
Type: toxicity, organism-based, Sprague-Dawley
Design: regimen Daily Repeat, gender Male, age 6 weeks
Conditions: in vivo, po, 0 mg/kg, route gavage, dose level Control; for APTT / Bas / Eos / Fbg / Hb / Ht / Lym / MCH / MCHC / MCV / Mono / Neu / PT / Plat / RBC / Ret / WBC: tissue Blood; for KIDNEY_L / KIDNEY_R / KIDNEY_TOTAL: tissue Kidney; for LIVER: tissue Liver; for A/G / ALP / ALT / AST / BUN / CRE / Ca / Cl / DBIL / GLC / IP / K / LDH / Na / PL / RALB / TBIL / TC / TG / TP / gamma-GTP: tissue Plasma

With `Cc1nnc2n1-c1ccc(Cl)cc1C(c1ccccc1Cl)=NC2` [TRIAZOLAM] the TERMINAL_BW (72 h, time 3 day) was 223.3 g, the APTT (72 h, time 3 day) was 19.2 s and the Bas (72 h, time 3 day) was 0%. For the same molecule, the Eos (72 h, time 3 day) was 1.2%, the Fbg (72 h, time 3 day) was 272.8 mg/dL and the Hb (72 h, time 3 day) was 13.7 g/dL. For the same molecule, the Ht (72 h, time 3 day) was 40.9%, the Lym (72 h, time 3 day) was 75.6% and the MCH (72 h, time 3 day) was 21 pg. The MCHC (72 h, time 3 day) was 33.5%, the MCV (72 h, time 3 day) was 62.7 fL and the Mono (72 h, time 3 day) was 3%. It also gave a Neu (72 h, time 3 day) of 19.2%, a PT (72 h, time 3 day) of 13 s and a Plat (72 h, time 3 day) of 121.4 x10_4/uL. It also gave an RBC (72 h, time 3 day) of 651.8 x10_4/ul, a Ret (72 h, time 3 day) of 7.4% and a WBC (72 h, time 3 day) of 85.5 x10_2/uL. The KIDNEY_L (72 h, time 3 day) was 1 g, the KIDNEY_R (72 h, time 3 day) was 1 g and the KIDNEY_TOTAL (72 h, time 3 day) was 1.9 g. It also gave an LIVER (72 h, time 3 day) of 10.5 g, an A/G (72 h, time 3 day) of 0.9 and an ALP (72 h, time 3 day) of 1815 IU/L. The ALT (72 h, time 3 day) was 48.2 IU/L, the AST (72 h, time 3 day) was 75.8 IU/L and the BUN (72 h, time 3 day) was 15 mg/dL. It also gave a CRE (72 h, time 3 day) of 0.2 mg/dL, a Ca (72 h, time 3 day) of 11.3 mg/dL and a Cl (72 h, time 3 day) of 104.8 meq/L. It also gave a DBIL (72 h, time 3 day) of 0.014 mg/dL, a GLC (72 h, time 3 day) of 172.2 mg/dL and an IP (72 h, time 3 day) of 8.4 mg/dL. The K (72 h, time 3 day) was 4 meq/L, the LDH (72 h, time 3 day) was 74.8 IU/L and the Na (72 h, time 3 day) was 143.2 meq/L. For the same molecule, the PL (72 h, time 3 day) was 168.8 mg/dL, the RALB (72 h, time 3 day) was 2.6 g/dL and the TBIL (72 h, time 3 day) was 0.054 mg/dL. It also gave a TC (72 h, time 3 day) of 86.4 mg/dL, a TG (72 h, time 3 day) of 126 mg/dL and a TP (72 h, time 3 day) of 5.6 g/dL. The gamma-GTP (72 h, time 3 day) was 1.2 IU/L, the TERMINAL_BW ([…], time 7 day) was 259.3 g and the TERMINAL_BW ([…], time 14 day) was 313.4 g. For the same molecule, the TERMINAL_BW ([…], time 28 day) was 389.2 g, the APTT ([…], time 7 day) was 21.5 s and the Bas ([…], time 7 day) was 0%. For the same molecule, the Eos ([…], time 7 day) was 1.2%, the Fbg ([…], time 7 day) was 262.4 mg/dL and the Hb ([…], time 7 day) was 13.7 g/dL. For the same molecule, the Ht ([…], time 7 day) was 40.7%, the Lym ([…], time 7 day) was 76.4% and the MCH ([…], time 7 day) was 20.6 pg. For the same molecule, the MCHC ([…], time 7 day) was 33.7%, the MCV ([…], time 7 day) was 61.2 fL and the Mono ([…], time 7 day) was 2.4%. For the same molecule, the Neu ([…], time 7 day) was 19.4%, the PT ([…], time 7 day) was 12.8 s and the Plat ([…], time 7 day) was 126.9 x10_4/uL. The RBC ([…], time 7 day) was 665.6 x10_4/ul, the Ret ([…], time 7 day) was 5.6% and the WBC ([…], time 7 day) was 92.9 x10_2/uL. The APTT ([…], time 14 day) was 18.7 s, the Bas ([…], time 14 day) was 0.4% and the Eos ([…], time 14 day) was 1%. The Fbg ([…], time 14 day) was 250.2 mg/dL, the Hb ([…], time 14 day) was 14.4 g/dL and the Ht ([…], time 14 day) was 43.9%. For the same molecule, the Lym ([…], time 14 day) was 74.6%, the MCH ([…], time 14 day) was 19.9 pg and the MCHC ([…], time 14 day) was 32.8%. It also gave an MCV ([…], time 14 day) of 60.6 fL, a Mono ([…], time 14 day) of 2.4% and a Neu ([…], time 14 day) of 21%. It also gave a PT ([…], time 14 day) of 13.6 s, a Plat ([…], time 14 day) of 122.6 x10_4/uL and an RBC ([…], time 14 day) of 723.8 x10_4/ul. It also gave a Ret ([…], time 14 day) of 4.5%, a WBC ([…], time 14 day) of 116.9 x10_2/uL and an APTT ([…], time 28 day) of 18.6 s. It also gave a Bas ([…], time 28 day) of 0.4%, an Eos ([…], time 28 day) of 1.4% and a Fbg ([…], time 28 day) of 262.6 mg/dL. It also gave a Hb ([…], time 28 day) of 15.3 g/dL, a Ht ([…], time 28 day) of 45.3% and a Lym ([…], time 28 day) of 79.6%. For the same molecule, the MCH ([…], time 28 day) was 18.8 pg, the MCHC ([…], time 28 day) was 33.7% and the MCV ([…], time 28 day) was 55.8 fL. It also gave a Mono ([…], time 28 day) of 2%, a Neu ([…], time 28 day) of 15.8% and a PT ([…], time 28 day) of 13.4 s. The Plat ([…], time 28 day) was 106.8 x10_4/uL, the RBC ([…], time 28 day) was 812.8 x10_4/ul and the Ret ([…], time 28 day) was 2.1%. For the same molecule, the WBC ([…], time 28 day) was 76.6 x10_2/uL, the KIDNEY_L ([…], time 7 day) was 1.1 g and the KIDNEY_R ([…], time 7 day) was 1.1 g. The KIDNEY_TOTAL ([…], time 7 day) was 2.2 g, the KIDNEY_L ([…], time 14 day) was 1.2 g and the KIDNEY_R ([…], time 14 day) was 1.2 g. The KIDNEY_TOTAL ([…], time 14 day) was 2.4 g, the KIDNEY_L ([…], time 28 day) was 1.4 g and the KIDNEY_R ([…], time 28 day) was 1.4 g. For the same molecule, the KIDNEY_TOTAL ([…], time 28 day) was 2.7 g, the LIVER ([…], time 7 day) was 11.8 g and the LIVER ([…], time 14 day) was 13.3 g. For the same molecule, the LIVER ([…], time 28 day) was 15.3 g, the A/G ([…], time 7 day) was 0.9 and the ALP ([…], time 7 day) was 1652.6 IU/L. For the same molecule, the ALT ([…], time 7 day) was 45.4 IU/L, the AST ([…], time 7 day) was 75 IU/L and the BUN ([…], time 7 day) was 16.8 mg/dL. It also gave a CRE ([…], time 7 day) of 0.2 mg/dL, a Ca ([…], time 7 day) of 10.9 mg/dL and a Cl ([…], time 7 day) of 105.8 meq/L. The DBIL ([…], time 7 day) was 0.01 mg/dL, the GLC ([…], time 7 day) was 188.2 mg/dL and the IP ([…], time 7 day) was 7.6 mg/dL. For the same molecule, the K ([…], time 7 day) was 4.3 meq/L, the LDH ([…], time 7 day) was 73.6 IU/L and the Na ([…], time 7 day) was 141.8 meq/L. The PL ([…], time 7 day) was 161.6 mg/dL, the RALB ([…], time 7 day) was 2.6 g/dL and the TBIL ([…], time 7 day) was 0.042 mg/dL. The TC ([…], time 7 day) was 85 mg/dL, the TG ([…], time 7 day) was 122.8 mg/dL and the TP ([…], time 7 day) was 5.6 g/dL. It also gave a gamma-GTP ([…], time 7 day) of 1 IU/L, an A/G ([…], time 14 day) of 0.8 and an ALP ([…], time 14 day) of 1514.4 IU/L. For the same molecule, the ALT ([…], time 14 day) was 46 IU/L, the AST ([…], time 14 day) was 79.6 IU/L and the BUN ([…], time 14 day) was 15.4 mg/dL. The CRE ([…], time 14 day) was 0.2 mg/dL, the Ca ([…], time 14 day) was 10.9 mg/dL and the Cl ([…], time 14 day) was 104.4 meq/L. The DBIL ([…], time 14 day) was 0.012 mg/dL, the GLC ([…], time 14 day) was 172.4 mg/dL and the IP ([…], time 14 day) was 7.1 mg/dL. The K ([…], time 14 day) was 3.9 meq/L, the LDH ([…], time 14 day) was 90 IU/L and the Na ([…], time 14 day) was 143 meq/L. It also gave a PL ([…], time 14 day) of 167.4 mg/dL, an RALB ([…], time 14 day) of 2.6 g/dL and a TBIL ([…], time 14 day) of 0.044 mg/dL. The TC ([…], time 14 day) was 82.4 mg/dL, the TG ([…], time 14 day) was 135.6 mg/dL and the TP ([…], time 14 day) was 5.7 g/dL. For the same molecule, the gamma-GTP ([…], time 14 day) was 1.4 IU/L, the A/G ([…], time 28 day) was 0.8 and the ALP ([…], time 28 day) was 1373.8 IU/L. The ALT ([…], time 28 day) was 36.6 IU/L, the AST ([…], time 28 day) was 62 IU/L and the BUN ([…], time 28 day) was 15.4 mg/dL. It also gave a CRE ([…], time 28 day) of 0.2 mg/dL, a Ca ([…], time 28 day) of 10.7 mg/dL and a Cl ([…], time 28 day) of 105.8 meq/L. The DBIL ([…], time 28 day) was 0.008 mg/dL, the GLC ([…], time 28 day) was 185.8 mg/dL and the IP ([…], time 28 day) was 6.3 mg/dL. The K ([…], time 28 day) was 4.2 meq/L, the LDH ([…], time 28 day) was 57 IU/L and the Na ([…], time 28 day) was 144 meq/L. For the same molecule, the PL ([…], time 28 day) was 158.4 mg/dL, the RALB ([…], time 28 day) was 2.7 g/dL and the TBIL ([…], time 28 day) was 0.056 mg/dL. For the same molecule, the TC ([…], time 28 day) was 72.8 mg/dL, the TG ([…], time 28 day) was 159.8 mg/dL and the TP ([…], time 28 day) was 6.1 g/dL. The gamma-GTP ([…], time 28 day) was 1 IU/L.
